Experimental data taken from patent US4485039A, “Synthetic analogues of α-melanotropin” (University Patents, Inc., priority 1982, dated 1984).
Positions of bridges follow the written chain, without caps; N, C: chain ends. Residues, ends and D or L forms follow the SMILES beside them.

What was measured:
[1] = tested on: lizard (Anolis carolinensis) skin melanophores; assay: lizard skin bioassay, melanosome dispersion in vitro; type: cell-based
[2] = tested on: frog (Rana pipiens) skin melanophores; assay: frog skin bioassay, melanosome dispersion in vitro; type: cell-based; conditions: standard frog skin assay
Description: The Example 1 compounds were examined for their biological effects on melanosome dispersion in vitro using the standard frog (Rana pipiens) skin bioassay and photo-reflectance methods. See, Hadley, et al., Science, 213, pp. 1025-1027 (1981).

[3] = tested on: adenylate cyclase in Cloudman S-91 mouse melanoma tumors; conditions: [α-32P]ATP conversion to [32P]cAMP
Description: ATP conversion to [^32 P]cAMP in Cloudman S-91 mouse melanoma tumors as described in Sawyer, et al., Proc. Nat. Acad. Sci. USA, 77, 5754-5758 (1980). [^32 P]cAMP was isolated, purified and detected according to Salomon, et al., Anal. Biochem., 24, pp. 18-26 (1976).

[4] = tested on: frog (Rana pipiens) skin melanophores; assay: duration of melanosome dispersion, frog skin bioassay; type: cell-based; conditions: 5×10^-10 M, skins rinsed at 60 minutes
Procedure: The compounds of Example 1 were examined with respect to the duration of their ability to stimulate melanosome dispersion in vitro using the frog (Rana pipiens) skin bioassay.
At time zero, 5×10^-10 M of α-MSH was added to one group of frog skins and 5×10^-10 M of the test compounds were individually added to the second and third groups of skins. At time=60 minutes, skins were rinsed and transferred to Ringers solution.

[5] = cited from earlier work

CC(=O)N[C@H]1CSSC[C@@H](C(=O)N[C@@H](CCCCN)C(=O)N2CCC[C@H]2C(=O)N[C@H](C(N)=O)C(C)C)NC(=O)[C@H](Cc2c[nH]c3ccccc23)NC(=O)[C@H](CCCNC(=N)N)NC(=O)[C@H](Cc2ccccc2)NC(=O)[C@H](Cc2cnc[nH]2)NC(=O)[C@H](CCC(=O)O)NC1=O [acetyl-[half-Cys^4, half-Cys^10]-α-MSH4-13NH.sbsb.2] (Ac-CEHFRWCKPV-NH2; disulfide 1-7)
potency relative to the native hormone [1]: about 1.6 times

[half-Cys^5, half-Cys^11 ]-α-MSH
potency compared with α-MSH (in words) [2]: less potent than α-MSH | enzymatic stability compared with α-MSH (in words) (chymotrypsin): enzymatically more stable than α-MSH

[Half-Cys^4, half-Cys^10 ]-α-MSH
potency relative to the native hormone [1]: approximately thirty | maximal adenylate cyclase activity compared with α-MSH [3]: same maximal adenylate cyclase activity as α-MSH | potency relative to the native hormone [3]: approximately three

Ac-Ser^1 -Tyr^2 -Ser^3 -Met^4 -Glu^5 -His^6 -Phe^7 -Arg^8 -Trp^9 -Gly^10 -Lys^11 -Pro^12 -Val^13 -NH2 [α-MSH]
time until activity completely reversed [4]: less than three | time to complete degradation to a biologically inactive compound (chymotrypsin): ≤ 5 minutes | half-life in serum [5]: less than 2 minutes
